Measurements from patent US20220184071A1, “GEPOTIDACIN FOR USE IN THE TREATMENT OF BACTERIAL URINARY TRACT INFECTIONS” (GlaxoSmithKline Intellectual Property Development Limited, priority 2019, published 2022).
In brackets after ≈: the same amount, converted by molar mass. Read-outs that look alike come from different tables or passages of the source. Marks after values point to notes of the source that are not given here.

Key:
E. coli = assay: Phase IIa baseline uropathogen susceptibility testing (CLSI broth microdilution); format: cell-based, Escherichia coli; details: baseline visit
Protocol: (§1) This phase IIa single center study evaluated the safety, tolerability, pharmacokinetics, and efficacy of oral gepotidacin 1500 mg BID for 5 days in female subjects with acute cystitis. Clean catch mid-stream urine specimens were obtained for quantitative culture by standard methods. Urine samples were taken from all participants pre-treatment (baseline) and at all post-baseline visits. All urine samples were sent to a central laboratory (PPD Global Clinical Laboratories, Highland Heights, Ky., USA) for Gram stain, quantitative culture, pathogen identification and susceptibility testing. See FIG. 1 for participant disposition and study outline.
(§2) Susceptibility testing by CLSI broth microdilution and gradient diffusion (fosfomycin only) was conducted (CLSI, 2015, Methods for dilution antimicrobial susceptibility tests for bacteria that grow aerobically; approved standard-tenth edition; and CLSI, 2018. Performance Standards for Antimicrobial Susceptibility Testing; Twenty-seventh Informational Supplement M100-S28). Inclusion in the microbiological intent-to-treat population (micro-ITT), required growth of a qualifying baseline uropathogen (≥10^5 CFU/mL). See FIG. 2 for the baseline algorithm.

viridans streptococci = assay: MIC by CLSI broth microdilution, Example 5 Method 1; format: cell-based; details: 105 isolates
Protocol: Gepotidacin was tested against 101 coagulase-negative staphylococci and 105 viridans streptococci in serial two-fold dilutions and the minimum inhibitory concentration (MIC) was determined as the lowest concentration of the compound that inhibited visible growth. All of the clinical isolates were collected in 2009-2012 from patient infections from North America, Europe, Latin America and Asia-Pacific medical centers and were mainly obtained from patients with documented nosocomial and community-acquired respiratory tract infections, bloodstream infections and skin and skin structure infections. Ceftriaxone, meropenem, penicillin, levofloxacin, moxifloxacin and linezolid were included as comparators when testing the viridans streptococci isolates. Oxacillin, levofloxacin, moxifloxacin and linezolid, were included as comparators when testing the coagulase-negative staphylococci isolates. MICs were determined by broth microdilution according to CLSI methods.

[1] = system: all the gram-negative anaerobe organisms combined; assay: MIC by CLSI agar dilution, Example 6 Method 1; format: cell-based; details: all gram-negative anaerobes combined; for MIC90: read-out: overall MIC90
Protocol: (§3) Antimicrobial activity was determined by agar dilution using the Clinical and Laboratory Standards Institute (CLSI) recommended procedure.
(§4) The compounds were tested in serial two-fold dilutions and the minimum inhibitory concentration (MIC) was determined as the lowest concentration of the compound that inhibited visible growth. Gepotidacin was tested against 333 gram-negative anaerobic and 203 gram-positive anaerobic isolates collected from clinical samples in North America and Europe from 2000 to 2017; the majority collected from 2013 to 2016.
(§5) Ceftriaxone, clindamycin, imipenem, metronidazole, moxifloxacin and piperacillin/tazobactam were included as comparators.

[2] = system: gram-positive anaerobe organisms combined; assay: MIC by CLSI agar dilution, Example 6 Method 1; format: cell-based; details: gram-positive anaerobes combined; for MIC90: read-out: overall MIC90
Protocol: as §3, §4, §5

C. koseri = assay: Phase IIa baseline uropathogen susceptibility testing (CLSI broth microdilution); format: cell-based, Citrobacter koseri; details: baseline isolate
Protocol: as §1, §2

K. pneumoniae = assay: as above; format: cell-based, Klebsiella pneumoniae; details: baseline isolate
Protocol: as §1, §2

qualifying uropathogens = assay: as above; format: cell-based
Protocol: as §1, §2

[3] = system: Staphylococcus saprophyticus; assay: MIC by CLSI broth microdilution in CAMHB and urine, Example 1 Method 3; format: cell-based; details: for Mean MIC: n = 6
Protocol: Antimicrobial activity was determined by broth microdilution using the CLSI recommended procedure.
(§6) The compounds were tested in serial two-fold dilutions and the minimum inhibitory concentration (MIC) was determined as the lowest concentration of the compound that inhibited visible growth.
In particular, gepotidacin was tested against 6 strains of Staphylococcus saprophyticus from the collection of isolates at Laboratory Specialists, Inc., Westlake, Ohio.
Levofloxacin was included as the comparator in the study to determine the effect of urine on the in vitro activity of gepotidacin against Staphylococcus saprophyticus. MICs were determined by broth microdilution according CLSI methods.
(§7) The data shown in the table below are results from an in vitro study conducted with the same S. saprophyticus isolates described above, to determine the effect of urine on the in vitro activity of gepotidacin and levofloxacin against S. saprophyticus. Study strains were tested for MICs (minimum inhibitory concentrations) according to reference CLSI broth microdilution method using cation-adjusted Mueller Hinton Broth (CAMHB) and with the addition of 25%, 50% and 100% urine (not pH adjusted, pH 6.42) and 100% urine (pH adjusted, 7.31 and 8.07).

[4] = system: Staphylococcus epidermidis; assay: MIC by CLSI broth microdilution in CAMHB and urine, Example 5 Method 2; format: cell-based; details: for Mean MIC: n = 4
Protocol: as §6
In particular, gepotidacin was tested against 4 strains of Staphylococcus epidermidis from the collection of isolates at Laboratory Specialists, Inc., Westlake, Ohio.
Levofloxacin was included as the comparator in the study to determine the effect of urine on the in vitro activity of gepotidacin against Staphylococcus epidermidis. MICs were determined by broth microdilution according CLSI methods.
as §7, with “epidermidis” for “saprophyticus”, “epidermidis.” for “saprophyticus.”, “MICs” for “MICs (minimum inhibitory concentrations)”

[5] = Escherichia coli, Participant #2 (E. coli), read-out: MIC
[6] = Escherichia coli, Participant #3 (E. coli), read-out: MIC
[7] = Escherichia coli, Participant #4 (E. coli), read-out: MIC
[8] = Escherichia coli, Participant #5 (E. coli, MDR and fluoroquinolone-resistant), read-out: MIC
[9] = Escherichia coli, Participant #6 (E. coli, MDR), read-out: MIC

Trimethoprim-sulfamethoxazole
MIC (E. coli; Participant #2 (E. coli)): 0.03 µg/mL | MIC (E. coli; Participant #3 (E. coli)): 0.03 µg/mL | MIC (E. coli; Participant #4 (E. coli)): 0.03 µg/mL | MIC (E. coli; Participant #5 (E. coli, MDR and fluoroquinolone-resistant)): >8^b μg/mL | MIC (E. coli; Participant #6 (E. coli, MDR)): >8^b μg/mL

COc1c(N2C[C@@H]3CCCN[C@@H]3C2)c(F)cc2c(=O)c(C(=O)O)cn(C3CC3)c12 [moxifloxacin]
MIC90 (viridans streptococci): 0.25 µg/mL (≈ 0.623 µM) | MIC90 [1]: 8 µg/mL | MIC90 [2]: > 8 µg/mL

CCC[C@@H]1C[C@@H](C(=O)N[C@@H]([C@H]2O[C@H](SC)[C@H](O)[C@@H](O)[C@H]2O)[C@H](C)Cl)N(C)C1 [clindamycin]
MIC90 [1]: > 8 µg/mL | MIC90 [2]: > 8 µg/mL

CC1(C)S[C@@H]2[C@H](NC(=O)[C@H](N)c3ccccc3)C(=O)N2[C@H]1C(=O)O [Ampicillin]
MIC (E. coli; [5]): > 64 µg/mL | MIC (E. coli; [6]): 2 µg/mL (≈ 5.72 µM) | MIC (E. coli; [7]): 1 µg/mL (≈ 2.86 µM) | MIC (E. coli; [8]): > 64 µg/mL | MIC (E. coli; [9]): > 64 µg/mL | Susceptibility of the qualifying uropathogen (C. koseri): resistant | Susceptibility of the qualifying uropathogen (K. pneumoniae): resistant

C[C@@H]1O[C@@H]1P(=O)(O)O [fosfomycin]
Resistance among the baseline uropathogens recovered (qualifying uropathogens): None of the baseline uropathogens recovered were resistant

C[C@@H](O)[C@H]1C(=O)N2C(C(=O)O)=C(S[C@@H]3CN[C@H](C(=O)N(C)C)C3)[C@H](C)[C@H]12 [meropenem]
Resistance among the baseline uropathogens recovered (qualifying uropathogens): None of the baseline uropathogens recovered were resistant | MIC90 (viridans streptococci): 0.25 µg/mL (≈ 0.652 µM)

C[C@@H](O)[C@H]1C(=O)N2C(C(=O)O)=C(SCCN=CN)C[C@H]12 [imipenem]
MIC90 [1]: 0.5 µg/mL | MIC90 [2]: 8 µg/mL

CO/N=C(\C(=O)N[C@@H]1C(=O)N2C(C(=O)O)=C(CSc3nc(=O)c(=O)[nH]n3C)CS[C@H]12)c1csc(N)n1 [ceftriaxone]
MIC90 [1]: 512 µg/mL | MIC90 [2]: 256 µg/mL

C[C@H]1COc2c(N3CCN(C)CC3)c(F)cc3c(=O)c(C(=O)O)cn1c23 [Levofloxacin, reference compound]
Mean Dilution Difference ([3]; 25% Urine (pH 7.09) vs CAMHB): 0.50 | Mean difference ([3]; 25% Urine (pH 7.09) vs CAMHB): 0.33 | N(%) ± 1 dilution ([3]; 25% Urine (pH 7.09) vs CAMHB): 6 (100%) | N(%) ± 2 dilution ([3]; 25% Urine (pH 7.09) vs CAMHB): 6 (100%) | Mean MIC ([3]; 25% Urine (pH 7.09)): 1.12 µg/mL | Mean Dilution Difference ([3]; 50% Urine (6.99) vs CAMHB): 0.17 | Mean difference ([3]; 50% Urine (6.99) vs CAMHB): 0.10 | N(%) ± 1 dilution ([3]; 50% Urine (6.99) vs CAMHB): 6 (100%) | N(%) ± 2 dilution ([3]; 50% Urine (6.99) vs CAMHB): 6 (100%) | Mean MIC ([3]; 50% Urine (6.99)): 0.89 µg/mL | Mean Dilution Difference ([3]; 100% Urine (pH 6.42) vs CAMHB): 0.67 | Mean difference ([3]; 100% Urine (pH 6.42) vs CAMHB): 0.47 | N(%) ± 1 dilution ([3]; 100% Urine (pH 6.42) vs CAMHB): 6 (100%) | N(%) ± 2 dilution ([3]; 100% Urine (pH 6.42) vs CAMHB): 6 (100%) | Mean MIC ([3]; 100% Urine (pH 6.42)): 1.26 µg/mL | Mean Dilution Difference ([3]; 100% Urine (pH 7.31) vs CAMHB): 1.50 | Mean difference ([3]; 100% Urine (pH 7.31) vs CAMHB): 1.45 | N(%) ± 1 dilution ([3]; 100% Urine (pH 7.31) vs CAMHB): 2 (33.3%) | N(%) ± 2 dilution ([3]; 100% Urine (pH 7.31) vs CAMHB): 6 (100%) | Mean MIC ([3]; 100% Urine (pH 7.31)): 2.24 µg/mL | Mean Dilution Difference ([3]; 100% Urine (pH 8.07) vs CAMHB): 1.17 | Mean difference ([3]; 100% Urine (pH 8.07) vs CAMHB): 0.99 | N(%) ± 1 dilution ([3]; 100% Urine (pH 8.07) vs CAMHB): 5 (83.3%) | N(%) ± 2 dilution ([3]; 100% Urine (pH 8.07) vs CAMHB): 6 (100%) | Mean MIC ([3]; 100% Urine (pH 8.07)): 1.78 µg/mL | Mean MIC ([3]; CAMHB (ref. method, pH 7.2)): 0.79 µg/mL | Mean Dilution Difference ([4]; 25% Urine (pH 7.09) vs CAMHB): 0.25 | Mean difference ([4]; 25% Urine (pH 7.09) vs CAMHB): 0.03 | N(%) ± 1 dilution ([4]; 25% Urine (pH 7.09) vs CAMHB): 4 (100%) | N(%) ± 2 dilution ([4]; 25% Urine (pH 7.09) vs CAMHB): 4 (100%) | Mean MIC ([4]; 25% Urine (pH 7.09)): 0.17 µg/mL | Mean Dilution Difference ([4]; 50% Urine (6.99) vs CAMHB): 0.25 | Mean difference ([4]; 50% Urine (6.99) vs CAMHB): 0.03 | N(%) ± 1 dilution ([4]; 50% Urine (6.99) vs CAMHB): 4 (100%) | N(%) ± 2 dilution ([4]; 50% Urine (6.99) vs CAMHB): 4 (100%) | Mean MIC ([4]; 50% Urine (6.99)): 0.17 µg/mL | Mean Dilution Difference ([4]; 100% Urine (pH 6.42) vs CAMHB): 0.51 | Mean difference ([4]; 100% Urine (pH 6.42) vs CAMHB): 0.06 | N(%) ± 1 dilution ([4]; 100% Urine (pH 6.42) vs CAMHB): 4 (100%) | N(%) ± 2 dilution ([4]; 100% Urine (pH 6.42) vs CAMHB): 4 (100%) | Mean MIC ([4]; 100% Urine (pH 6.42)): 0.21 µg/mL | Mean Dilution Difference ([4]; 100% Urine (pH 7.31) vs CAMHB): 0.78 | Mean difference ([4]; 100% Urine (pH 7.31) vs CAMHB): 0.10 | N(%) ± 1 dilution ([4]; 100% Urine (pH 7.31) vs CAMHB): 3 (75%) | N(%) ± 2 dilution ([4]; 100% Urine (pH 7.31) vs CAMHB): 4 (100%) | Mean MIC ([4]; 100% Urine (pH 7.31)): 0.25 µg/mL | Mean Dilution Difference ([4]; 100% Urine (pH 8.07) vs CAMHB): 1.78 | Mean difference ([4]; 100% Urine (pH 8.07) vs CAMHB): 0.35 | N(%) ± 1 dilution ([4]; 100% Urine (pH 8.07) vs CAMHB): 2 (50%) | N(%) ± 2 dilution ([4]; 100% Urine (pH 8.07) vs CAMHB): 3 (75%) | Mean Dilution Difference ([4]; 100% Urine (pH 8.07) vs CAMHB, listed as levofloxacin): approximately 1.8 | Mean MIC ([4]; 100% Urine (pH 8.07)): 0.5 µg/mL | Mean MIC ([4]; CAMHB (ref. method, pH 7.2)): 0.15 µg/mL

piperacillin/tazobactam
Resistance among the baseline uropathogens recovered (qualifying uropathogens): None of the baseline uropathogens recovered were resistant | overall MIC90 [1]: 16 µg/mL | overall MIC90 [2]: 16 µg/mL

Cc1ncc([N+](=O)[O-])n1CCO [metronidazole]
MIC90 [1]: 2 µg/mL | MIC90 [2]: 0.5 µg/mL

Cc1nnc(SCC2=C(C(=O)O)N3C(=O)[C@@H](NC(=O)Cn4cnnn4)[C@H]3SC2)s1 [Cefazolin]
MIC (E. coli; [5]): 2 µg/mL (≈ 4.4 µM) | MIC (E. coli; [6]): 4 µg/mL (≈ 8.8 µM) | MIC (E. coli; [7]): 2 µg/mL (≈ 4.4 µM) | MIC (E. coli; [8]): 4 µg/mL (≈ 8.8 µM) | MIC (E. coli; [9]): 32 µg/mL (≈ 70.4 µM)
